Source: patent publication US20250304608A1, “PHOSPHORUS COMPOUND AND USE THEREOF” (SHANGHAI SHIJIANG BIOTECHNOLOGY CO., LTD., priority 2022, published 2025)

Assays:
Format in all cases: cell-based
mPTP-active Daoy cell = assay: CellTiter-Glo cell viability inhibition, mPTP-active Daoy cell; settings: Homo sapiens; Daoy cell transfected with empty virus vector; CellTiter-Glo; read-out: mPTP-active Daoy cell (IC50)
mPTP-inactive Daoy cell = assay: CellTiter-Glo cell viability inhibition, mPTP-inactive Daoy cell; settings: Homo sapiens, Daoy cell transfected with PPIF shRNA vector
Con-NCI-H82 cell = assay: CellTiter-Glo cell viability inhibition, Con-NCI-H82 cell; settings: Homo sapiens, NCI-H82 cell transfected with empty virus vector
Source text: (§1) The expression of NNMT protein in NCI-H82 cell was overexpressed by inserting the NNMT gene into NCI-H82 cell using a viral vector, and the NNMT protein-overexpressing NCI-H82 cell (ov-NNMT NCI-H82 cell) was obtained. The control NCI-H82 cell (Con-NCI-H82 cell) was obtained by transfecting NCI-H82 cell with empty virus vector without carrying NNMT gene. The expressing content of NNMT protein in the Con-NCI-H82 cell and ov-NNMT NCI-H82 cell was detected using Western Blot assay (as shown in FIG. 3), it could be seen from FIG. 3 that the NNMT protein was overexpressed in the ov-NNMT NCI-H82 cell compared with the expression level of NNMT protein in the Con-NCI-H82 cell.

ov-NNMT NCI-H82 cell = assay: CellTiter-Glo cell viability inhibition, ov-NNMT NCI-H82 cell; settings: Homo sapiens, NCI-H82 cell overexpressing NNMT protein
Source text: as §1

Row | IC50 (Con-NCI-H82 cell) [µM] | IC50 (ov-NNMT NCI-H82 cell) [µM] | SMILES | IC50 (mPTP-active Daoy cell) [µM] | IC50 (mPTP-inactive Daoy cell) [nM]
1 | 0.05 | 0.56 | c1ccc([P+](c2ccccc2)(c2cccc3[nH]ccc23)c2cccc3[nH]ccc23)cc1 [AB35419] | 0.74 | 150
2 | 0.32 | 1.03 | c1ccc([P+](c2ccccc2)(c2ccccc2)c2ccc3cc[nH]c3c2)cc1 [AB35431] | 2 | 650
3 | 0.27 | 1.21 | c1ccc([P+](c2ccccc2)(c2ccc3cc[nH]c3c2)c2ccc3cc[nH]c3c2)cc1 [AB35437] | 0.92 | 300
4 | 2.17 | 6.47 | c1ccc([P+](c2ccccc2)(c2ccccc2)c2cccc3cc[nH]c23)cc1 [AB35449] | 7.12 | 2440
5 | 0.23 | 1.56 | c1ccc([P+](c2ccccc2)(c2ccccc2)c2cccc3[nH]ccc23)cc1 [AB35450] | 0.43 | 100
6 | 0.13 | 0.96 | c1ccc([P+](c2ccccc2)(c2ccc3[nH]ccc3c2)c2ccc3[nH]ccc3c2)cc1 [AB35451] | 1.22 | 280
7 | 0.63 | 2.34 | c1ccc([P+](c2ccccc2)(c2cccc3[nH]ccc23)c2cncc3[nH]ccc23)cc1 [AB35452] | 5.39 | 820
8 | 6.48 | 20.6 | c1ccc([P+](c2ccccc2)(c2cccc3cc[nH]c23)c2cccc3cc[nH]c23)cc1 [AB35462] | 28.9 | 12700
9 | 0.34 | 2.16 | c1ccc([P+](c2ccccc2)(c2cccc3[nH]ccc23)c2ccnc3[nH]ccc23)cc1 [AB35471] | 4.35 | 810
10 | 8.11 | 19.4 | c1ccc([P+](c2ccccc2)(c2cccnc2)c2ccc3cc[nH]c3c2)cc1 [AB35472] | 38.5 | 10700
11 | 3.27 | 12.3 | c1ccc([P+](c2ccccc2)(c2cccnc2)c2ccc3[nH]ccc3c2)cc1 [AB35473] | 18.1 | 2950
12 | 3.66 | 13.6 | c1ccc([P+](c2ccccc2)(c2ccncc2)c2cccc3[nH]ccc23)cc1 [AB35474] | 18.4 | 2450
13 | 25.3 | > 50 | c1ccc([P+](c2ccccc2)(c2cncc3[nH]ccc23)c2cncc3[nH]ccc23)cc1 [AB35477] | 24.2 | 10300
14 | 6.36 | 25.5 | c1ccc([P+](c2ccccc2)(c2ccncc2)c2ccc3cc[nH]c3c2)cc1 [AB35479] | 25.1 | 6510
15 | 13.8 | 40.1 | c1ccc([P+](c2ccccc2)(c2cccc3[nH]ncc23)c2cccc3[nH]ncc23)cc1 [AB35480] | > 50 | 6260
16 | 2.45 | 9.82 | c1ccc([P+](c2ccccc2)(c2ccccc2)c2cccc3[nH]ncc23)cc1 [AB35481] | 16.7 | 2500
17 | 0.41 | 2.13 | c1ccc([P+](c2ccccc2)(c2cccc3[nH]ccc23)c2cccc3[nH]ncc23)cc1 [AB35482] | 3.97 | 610
18 | 0.78 | 3.96 | c1ccc([P+](c2ccccc2)(c2ccc3cc[nH]c3c2)c2ccccn2)cc1 [AB35507] | 4.08 | 1730
19 | 0.36 | 1.45 | COc1ccc([P+](c2ccc(OC)cc2)(c2ccc(OC)cc2)c2cccc3[nH]ccc23)cc1 [AB35527] | 1.21 | 250
20 | 0.38 | 1.87 | c1ccc([P+](c2ccccc2)(c2ccc3[nH]ccc3c2)c2ccc3[nH]ncc3c2)cc1 [AB35529] | 4.11 | 880
21 | 0.51 | 2.33 | c1ccc([P+](c2ccccc2)(c2ccc3[nH]ccc3c2)c2cnc3[nH]ccc3c2)cc1 [AB35537] | 2.24 | 790
22 | 0.97 | 3.86 | c1ccc([P+](c2ccccc2)(c2ccc3cc[nH]c3c2)c2ccc3cn[nH]c3c2)cc1 [AB35538] | 5.94 | 1710
23 | 1.55 | 6.03 | c1ccc([P+](c2ccccc2)(c2ccc3[nH]ccc3c2)c2ccc3[nH]cnc3c2)cc1 [AB35539] | 12.2 | 3880
24 | 2.22 | 7.14 | c1ccc([P+](c2ccccc2)(c2ccc3cc[nH]c3c2)c2ccc3nc[nH]c3c2)cc1 [AB35548] | 8.09 | 2640

Row | IC50 (Con-NCI-H82 cell) [µM] | IC50 (ov-NNMT NCI-H82 cell) [µM] | SMILES | IC50 (mPTP-active Daoy cell) [µM] | IC50 (mPTP-inactive Daoy cell) [nM]
25 | 3.18 | 9.57 | c1ccc([P+](c2ccccc2)(c2ccc3cc[nH]c3c2)c2cnc3cc[nH]c3c2)cc1 [AB35549] | 10.5 | 3850
26 | 0.46 | 2.09 | c1ccc([P+](c2ccccc2)(c2cnc3[nH]ccc3c2)c2cccc3[nH]ccc23)cc1 [AB35563] | 1.51 | 560
27 | 0.13 | 1.32 | Cn1ccc2c([P+](c3ccccc3)(c3ccccc3)c3cccc4[nH]ccc34)cccc21 [AB35564] | 0.39 | 50
28 | 1.66 | 5.34 | c1ccc([P+](c2ccccc2)(c2ccc3[nH]cnc3c2)c2cccc3[nH]ccc23)cc1 [AB35569] | 12.2 | 2340
29 | 3.34 | 11.8 | c1ccc([P+](c2ccccc2)(c2cnc3cc[nH]c3c2)c2cccc3[nH]ccc23)cc1 [AB35570] | 15.7 | 3990
30 | 0.19 | 1.43 | Cn1ccc2cc([P+](c3ccccc3)(c3ccccc3)c3ccccc3)ccc21 [AB35571] | 1.38 | 270
31 | 0.28 | 1.95 | c1ccc([P+](c2ccccc2)(c2cccc3[nH]ccc23)c2cccc3[nH]cnc23)cc1 [AB35572] | 10.3 | 3340
32 | 0.14 | 1.37 | Cn1ccc2c([P+](c3ccccc3)(c3ccccc3)c3ccccc3)cccc21 [AB35573] | 1.26 | 240
33 | 0.41 | 2.56 | Cn1cc2c([P+](c3ccccc3)(c3ccccc3)c3cccc4c3ccn4C)cccc2n1 [AB35574] | 8.35 | 2450
34 | 0.51 | 2.93 | c1ccc([P+](c2ccccc2)(c2ccccc2)c2ccc3c(ccn3CCN3CCOCC3)c2)cc1 [AB35576] | 1.6 | 460
35 | 1.08 | 4.54 | Cn1ccc2c([P+](c3ccccc3)(c3ccccc3)c3cccc4[nH]ncc34)cccc21 [AB35577] | 3.89 | 1210
36 | 1.27 | 4.93 | Cn1ccc2c([P+](c3ccccc3)(c3ccccc3)c3cccc4c3cnn4C)cccc21 [AB35578] | 3.8 | 1450
37 | 0.51 | 2.77 | c1ccc([P+](c2ccccc2)(c2ccccc2)c2cccc3c2ccn3CCN2CCCCC2)cc1 [AB35579] | 1.21 | 270
38 | 0.55 | 3.66 | c1ccc([P+](c2ccccc2)(c2ccc3[nH]ncc3c2)c2cccc3[nH]ccc23)cc1 [AB35580] | 4.57 | 1160
39 | 1.26 | 4.81 | c1ccc([P+](c2ccccc2)(c2ccc3cn[nH]c3c2)c2cccc3[nH]ccc23)cc1 [AB35581] | 5.34 | 1740
40 | 0.24 | 1.73 | c1ccc([P+](c2ccccc2)(c2ccc3[nH]ccc3n2)c2cccc3[nH]ccc23)cc1 [AB35584] | 1.34 | 460
41 | 0.52 | 3.34 | c1ccc([P+](c2ccccc2)(c2ccccc2)c2cccc3c2ccn3CCN2CCOCC2)cc1 [AB35585] | 3.54 | 1220
42 | 0.21 | 1.78 | c1ccc([P+](c2ccccc2)(c2cc3cc[nH]c3cn2)c2cccc3[nH]ccc23)cc1 [AB35588] | 1.14 | 380
43 | 0.32 | 2.34 | c1ccc([P+](c2ccccc2)(c2ccc3cc[nH]c3n2)c2cccc3[nH]ccc23)cc1 [AB35589] | 1.53 | 360
44 | 0.25 | 1.56 | COc1ccc([P+](c2ccc(OC)cc2)(c2cccc3[nH]ccc23)c2cccc3[nH]ccc23)cc1 [AB35596] | 1.32 | 250
45 | 0.18 | 1.85 | c1ccc([P+](c2ccccc2)(c2ccc3[nH]ccc3c2)c2ccc3[nH]ccc3n2)cc1 [AB35597] | 1.18 | 240
46 | 0.98 | 3.72 | c1ccc([P+](c2ccccc2)(c2ccc3[nH]ccc3c2)c2cc3[nH]ccc3cn2)cc1 [AB36405] | 5.45 | 1890
47 | 0.24 | 1.55 | COc1ccc([P+](c2ccc(OC)cc2)(c2cccc3c2ccn3C)c2ccnc3c2ccn3C)cc1 [AB36407] | 1.13 | 240
